The nature of series [1]: Cell survival against human breast cancer MCF7 cell line after 72h at 10 uM. The format is ADME, cell-based. The following applies: MCF7 breast cancer cells, read-out: Activity.
Series [2] in a line: Cell survival against human breast cancer MDA-MB-231 cell line after 72h at 10 uM. The format is ADME, cell-based. The following applies: MDA-MB-231 breast cancer cells, read-out: Activity.
Another series deals with MDA-MB-231. The experiment in a line: Cytotoxicity against human breast cancer MDA-MB-231 cell line lacking ER. The format is functional, cell-based.
Another series concerns MCF7. Put plainly: Cytotoxicity against human breast cancer MCF7 cell line expressing ER. Type of series: functional, cell-based.

This is an account of results in ChEMBL document CHEMBL1147763, “Synthesis and biological activities of nucleoside-estradiol conjugates” (Bioorg Med Chem Lett, 2006).

Turning to `O=c1[nH]cc(F)c(=O)[nH]1` [FLUOROURACIL], the viability at 72 h, 10 µM was found to be 40% in series [1] and 67% in series [2]. As for `Cn1cc(C#C[C@]2(O)CC[C@H]3[C@@H]4CCc5cc(O)ccc5[C@H]4CC[C@@]32C)c(=O)n(C)c1=O`, the Activity result in the series with MDA-MB-231 and in the series with MCF7 was “Not toxic” each time. Consider `C[C@]12CC[C@@H]3c4ccc(O)cc4CC[C@H]3[C@@H]1CC[C@@H]2O`, for which the Activity entry in the series with MDA-MB-231 and in the series on MCF7 was “Not toxic” in each case. On to `C[C@]12CC[C@@H]3c4ccc(O)cc4CC[C@H]3[C@@H]1CC[C@@]2(O)C#CCCCCC#Cc1cnc(O)nc1O`, for which the Activity result in the series on MDA-MB-231 and in the series on MCF7 was “Not toxic” throughout. With `C[C@]12CC[C@@H]3c4ccc(O)cc4CC[C@H]3[C@@H]1CC[C@@]2(O)C#CCCCCC#Cc1cn([C@H]2C[C@H](O)[C@@H](CO)O2)c(=O)[nH]c1=O`, the Activity entry with MDA-MB-231 and in the series with MCF7 was “Not toxic” in each case.

As to `C[C@]12CC[C@@H]3c4ccc(O)cc4CC[C@H]3[C@@H]1CC[C@@]2(O)C#CCCCCC#Cc1cn([C@@H]2O[C@H](CO)[C@@H](O)[C@H]2O)c(=O)[nH]c1=O`, the Activity entry in the series on MDA-MB-231 and in the series with MCF7 was “Not toxic” in each case. Take `Cn1cc(C#CCCCCC#C[C@]2(O)CC[C@H]3[C@@H]4CCc5cc(O)ccc5[C@H]4CC[C@@]32C)c(=O)n(C)c1=O`: the Activity result with MDA-MB-231 and in the series with MCF7 was “Not toxic” throughout. For the compound `C[C@]12CC[C@@H]3c4ccc(O)cc4CC[C@H]3[C@@H]1CC[C@@]2(O)C#Cc1nc2c(N)ncnc2n1[C@H]1O[C@@H](CO)[C@H](O)[C@@H]1O`, the Activity result with MDA-MB-231 and in the series on MCF7 was “Not toxic” throughout. Consider `C[C@]12CC[C@@H]3c4ccc(O)cc4CC[C@H]3[C@@H]1CC[C@@]2(O)C#Cc1cnc(O)nc1O`, for which the Activity entry in the series with MDA-MB-231 and in the series on MCF7 was “Not toxic” throughout. Regarding `CC/C(=C(\c1ccccc1)c1ccc(OCCN(C)C)cc1)c1ccccc1` [TAMOXIFEN], the viability at 72 h, 10 µM in series [1] was found to be 72%. For the compound `C[C@]12CC[C@@H]3c4ccc(O)cc4CC[C@H]3[C@@H]1CC[C@@]2(O)C#Cc1cn([C@H]2C[C@H](O)[C@@H](CO)O2)c(=O)[nH]c1=O`, the Activity entry with MDA-MB-231 and with MCF7 was “Not toxic” throughout.
